Assay results reported in ChEMBL document CHEMBL1949531, “Synthesis and antiviral activities of novel gossypol derivatives” (Bioorg Med Chem Lett, 2012).

Target: Albumin (Homo sapiens, UniProt P02768)
Assay: Binding affinity to human serum albumin by fluorescence quenching assay
Assay type: ADME
Details: isolated protein; call rule not given here

Albumin, sequence (P02768 whole entry): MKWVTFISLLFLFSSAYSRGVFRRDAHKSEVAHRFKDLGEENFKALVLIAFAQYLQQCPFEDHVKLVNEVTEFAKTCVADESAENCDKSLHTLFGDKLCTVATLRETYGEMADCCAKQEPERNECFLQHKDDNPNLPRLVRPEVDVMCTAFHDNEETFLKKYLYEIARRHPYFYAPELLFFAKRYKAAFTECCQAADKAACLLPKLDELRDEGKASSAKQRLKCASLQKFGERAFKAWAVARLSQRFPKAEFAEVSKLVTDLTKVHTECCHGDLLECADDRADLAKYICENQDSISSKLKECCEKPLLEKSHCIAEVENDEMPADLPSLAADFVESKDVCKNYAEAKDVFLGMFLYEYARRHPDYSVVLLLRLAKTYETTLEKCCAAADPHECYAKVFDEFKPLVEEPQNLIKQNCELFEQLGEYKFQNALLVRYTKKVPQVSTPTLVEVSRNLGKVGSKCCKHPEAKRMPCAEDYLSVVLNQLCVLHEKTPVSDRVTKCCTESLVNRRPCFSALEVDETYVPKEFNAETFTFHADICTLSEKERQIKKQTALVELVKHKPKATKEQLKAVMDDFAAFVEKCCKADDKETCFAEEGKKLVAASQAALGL

First: Cc1cc2c(c(O)c1-c1c(C)cc3c(c1O)/C(=C/NCCS(=O)(=O)[O-])C(=O)C(O)=C3C(C)C)/C(=C/NCCS(=O)(=O)[O-])C(=O)C(O)=C2C(C)C.[Na+].[Na+] [MEGOSIN]
Second: Cc1cc2c(c(O)c1-c1c(C)cc3c(c1O)/C(=C/NCCCCCCCC(=O)[O-])C(=O)C(O)=C3C(C)C)/C(=C/NCCCCCCCC(=O)[O-])C(=O)C(O)=C2C(C)C.[Na+].[Na+]
The Ka of the first is lower: 1.7559 ×10⁴ L/mol for the first, 2.8629 ×10⁴ L/mol for the second.

Going from `COC(=O)C(N/C=C1\C(=O)C(O)=C(C(C)C)c2cc(C)c(-c3c(C)cc4c(c3O)/C(=C/NC(C(=O)OC)c3ccccc3)C(=O)C(O)=C4C(C)C)c(O)c21)c1ccccc1` (stereo not given) to `Cc1cc2c(c(O)c1-c1c(C)cc3c(c1O)/C(=C/NC(C(=O)[O-])c1ccc(O)cc1)C(=O)C(O)=C3C(C)C)/C(=C/NC(C(=O)[O-])c1ccc(O)cc1)C(=O)C(O)=C2C(C)C.[Na+].[Na+]` (stereo not given), the Ka falls from 4.2658 ×10⁴ L/mol to 2.1607 ×10⁴ L/mol.

With `Cc1cc2c(C(C)C)c(O)c(O)c(/C=N/[C@@H](Cc3ccccc3)C(=O)[O-])c2c(O)c1-c1c(C)cc2c(C(C)C)c(O)c(O)c(/C=N/[C@@H](Cc3ccccc3)C(=O)[O-])c2c1O.[Na+].[Na+]` the Ka was 1.2835 ×10⁵ L/mol.

With `COC(=O)[C@H](CC(C)C)N/C=C1\C(=O)C(O)=C(C(C)C)c2cc(C)c(-c3c(C)cc4c(c3O)/C(=C/N[C@@H](CC(C)C)C(=O)OC)C(=O)C(O)=C4C(C)C)c(O)c21` the Ka was 7.1236 ×10³ L/mol.

System: Influenza A virus
Assay: Antiviral activity against Influenza A virus (A/Vietnam/1194/2004(H5N1)) infected in MDCK cells assessed as inhibition of viral replication by plaque reduction assay
Assay type: functional, organism-based
Details: not given

Compared with `Cc1cc2c(c(O)c1-c1c(C)cc3c(c1O)/C(=C/NCCS(=O)(=O)[O-])C(=O)C(O)=C3C(C)C)/C(=C/NCCS(=O)(=O)[O-])C(=O)C(O)=C2C(C)C.[Na+].[Na+]` [MEGOSIN], `Cc1cc2c(c(O)c1-c1c(C)cc3c(c1O)/C(=C/NCCCCCCCC(=O)[O-])C(=O)C(O)=C3C(C)C)/C(=C/NCCCCCCCC(=O)[O-])C(=O)C(O)=C2C(C)C.[Na+].[Na+]` is 4.6-fold higher in IC50: 8.59 µM for the first, 39.5 µM for the second.

`COC(=O)C(N/C=C1\C(=O)C(O)=C(C(C)C)c2cc(C)c(-c3c(C)cc4c(c3O)/C(=C/NC(C(=O)OC)c3ccccc3)C(=O)C(O)=C4C(C)C)c(O)c21)c1ccccc1` (stereo not given) and `Cc1cc2c(c(O)c1-c1c(C)cc3c(c1O)/C(=C/NC(C(=O)[O-])c1ccc(O)cc1)C(=O)C(O)=C3C(C)C)/C(=C/NC(C(=O)[O-])c1ccc(O)cc1)C(=O)C(O)=C2C(C)C.[Na+].[Na+]` (stereo not given) are within 1.5-fold of each other in IC50: 8.21 µM for the first, 7.76 µM for the second.

`Cc1cc2c(C(C)C)c(O)c(O)c(/C=N/[C@@H](Cc3ccccc3)C(=O)[O-])c2c(O)c1-c1c(C)cc2c(C(C)C)c(O)c(O)c(/C=N/[C@@H](Cc3ccccc3)C(=O)[O-])c2c1O.[Na+].[Na+]` and `COC(=O)[C@H](CC(C)C)N/C=C1\C(=O)C(O)=C(C(C)C)c2cc(C)c(-c3c(C)cc4c(c3O)/C(=C/N[C@@H](CC(C)C)C(=O)OC)C(=O)C(O)=C4C(C)C)c(O)c21` are within 1.5-fold of each other in IC50: 7.79 µM for the first, 8.63 µM for the second.

System: not listed separately
Assay: Cytotoxicity against MDCK cells by MTT assay
Assay type: cell-based, Canis lupus familiaris
Details: dog

`Cc1cc2c(c(O)c1-c1c(C)cc3c(c1O)/C(=C/NCCS(=O)(=O)[O-])C(=O)C(O)=C3C(C)C)/C(=C/NCCS(=O)(=O)[O-])C(=O)C(O)=C2C(C)C.[Na+].[Na+]` [MEGOSIN] and `Cc1cc2c(c(O)c1-c1c(C)cc3c(c1O)/C(=C/NCCCCCCCC(=O)[O-])C(=O)C(O)=C3C(C)C)/C(=C/NCCCCCCCC(=O)[O-])C(=O)C(O)=C2C(C)C.[Na+].[Na+]` cannot be ordered by CC50: > 43 µM for the first, > 39.5 µM for the second.

`COC(=O)C(N/C=C1\C(=O)C(O)=C(C(C)C)c2cc(C)c(-c3c(C)cc4c(c3O)/C(=C/NC(C(=O)OC)c3ccccc3)C(=O)C(O)=C4C(C)C)c(O)c21)c1ccccc1` (stereo not given) and `Cc1cc2c(c(O)c1-c1c(C)cc3c(c1O)/C(=C/NC(C(=O)[O-])c1ccc(O)cc1)C(=O)C(O)=C3C(C)C)/C(=C/NC(C(=O)[O-])c1ccc(O)cc1)C(=O)C(O)=C2C(C)C.[Na+].[Na+]` (stereo not given) cannot be ordered by CC50: > 41.1 µM for the first, > 38.8 µM for the second.

`Cc1cc2c(C(C)C)c(O)c(O)c(/C=N/[C@@H](Cc3ccccc3)C(=O)[O-])c2c(O)c1-c1c(C)cc2c(C(C)C)c(O)c(O)c(/C=N/[C@@H](Cc3ccccc3)C(=O)[O-])c2c1O.[Na+].[Na+]` and `COC(=O)[C@H](CC(C)C)N/C=C1\C(=O)C(O)=C(C(C)C)c2cc(C)c(-c3c(C)cc4c(c3O)/C(=C/N[C@@H](CC(C)C)C(=O)OC)C(=O)C(O)=C4C(C)C)c(O)c21` cannot be ordered by CC50: > 38.9 µM for the first, > 42.8 µM for the second.

System: Human immunodeficiency virus 1
Assay: Antiviral activity against HIV1 3B infected human TZM-bl cells assessed as inhibition of viral replication by luciferase reporter assay
Assay type: functional, organism-based
Details: Human immunodeficiency virus 1, 3B, TZM-bl; read-out: IC50

First: Cc1cc2c(c(O)c1-c1c(C)cc3c(c1O)/C(=C/NCCS(=O)(=O)[O-])C(=O)C(O)=C3C(C)C)/C(=C/NCCS(=O)(=O)[O-])C(=O)C(O)=C2C(C)C.[Na+].[Na+] [MEGOSIN]
Second: Cc1cc2c(c(O)c1-c1c(C)cc3c(c1O)/C(=C/NCCCCCCCC(=O)[O-])C(=O)C(O)=C3C(C)C)/C(=C/NCCCCCCCC(=O)[O-])C(=O)C(O)=C2C(C)C.[Na+].[Na+]
The IC50 of the first is 2.3-fold lower: 1.24 µM for the first, 2.84 µM for the second. The first is the more potent here.

`Cc1cc2c(c(O)c1-c1c(C)cc3c(c1O)/C(=C/NC(C(=O)[O-])c1ccc(O)cc1)C(=O)C(O)=C3C(C)C)/C(=C/NC(C(=O)[O-])c1ccc(O)cc1)C(=O)C(O)=C2C(C)C.[Na+].[Na+]` (stereo not given) and `Cc1cc2c(C(C)C)c(O)c(O)c(/C=N/[C@@H](Cc3ccccc3)C(=O)[O-])c2c(O)c1-c1c(C)cc2c(C(C)C)c(O)c(O)c(/C=N/[C@@H](Cc3ccccc3)C(=O)[O-])c2c1O.[Na+].[Na+]` are within 1.5-fold of each other in IC50: 1.34 µM for the first, 1.77 µM for the second.

Same assay, conditions: tzm-bl

In the case of `COC(=O)C(N/C=C1\C(=O)C(O)=C(C(C)C)c2cc(C)c(-c3c(C)cc4c(c3O)/C(=C/NC(C(=O)OC)c3ccccc3)C(=O)C(O)=C4C(C)C)c(O)c21)c1ccccc1` (stereo not given), the IC50 is reported as “Not Active”.
In the case of `COC(=O)[C@H](CC(C)C)N/C=C1\C(=O)C(O)=C(C(C)C)c2cc(C)c(-c3c(C)cc4c(c3O)/C(=C/N[C@@H](CC(C)C)C(=O)OC)C(=O)C(O)=C4C(C)C)c(O)c21`, the IC50 is reported as “Not Active”.

System: not listed separately
Assay: Selectivity index, ratio of CC50 for MDCK cells to IC50 for Influenza A virus (A/Vietnam/1194/2004(H5N1))
Assay type: functional
Details: not given

In the case of `Cc1cc2c(c(O)c1-c1c(C)cc3c(c1O)/C(=C/NCCS(=O)(=O)[O-])C(=O)C(O)=C3C(C)C)/C(=C/NCCS(=O)(=O)[O-])C(=O)C(O)=C2C(C)C.[Na+].[Na+]` [MEGOSIN], the “Ratio CC50/IC50” value is reported as >5.
For `COC(=O)C(N/C=C1\C(=O)C(O)=C(C(C)C)c2cc(C)c(-c3c(C)cc4c(c3O)/C(=C/NC(C(=O)OC)c3ccccc3)C(=O)C(O)=C4C(C)C)c(O)c21)c1ccccc1` (stereo not given), the “Ratio CC50/IC50” value was >5.
With `Cc1cc2c(c(O)c1-c1c(C)cc3c(c1O)/C(=C/NC(C(=O)[O-])c1ccc(O)cc1)C(=O)C(O)=C3C(C)C)/C(=C/NC(C(=O)[O-])c1ccc(O)cc1)C(=O)C(O)=C2C(C)C.[Na+].[Na+]` (stereo not given) the “Ratio CC50/IC50” value was >5.
With `Cc1cc2c(c(O)c1-c1c(C)cc3c(c1O)/C(=C/NCCCCCCCC(=O)[O-])C(=O)C(O)=C3C(C)C)/C(=C/NCCCCCCCC(=O)[O-])C(=O)C(O)=C2C(C)C.[Na+].[Na+]` the “Ratio CC50/IC50” value was >1.
In the case of `Cc1cc2c(C(C)C)c(O)c(O)c(/C=N/[C@@H](Cc3ccccc3)C(=O)[O-])c2c(O)c1-c1c(C)cc2c(C(C)C)c(O)c(O)c(/C=N/[C@@H](Cc3ccccc3)C(=O)[O-])c2c1O.[Na+].[Na+]`, the “Ratio CC50/IC50” value is reported as >5.
In the case of `COC(=O)[C@H](CC(C)C)N/C=C1\C(=O)C(O)=C(C(C)C)c2cc(C)c(-c3c(C)cc4c(c3O)/C(=C/N[C@@H](CC(C)C)C(=O)OC)C(=O)C(O)=C4C(C)C)c(O)c21`, the “Ratio CC50/IC50” value is reported as >5.

System: not listed separately
Assay: Selectivity index, ratio of CC50 for human TZM-bl cells to IC50 for HIV1 3B
Assay type: functional
Details: not given

Compared with `Cc1cc2c(c(O)c1-c1c(C)cc3c(c1O)/C(=C/NCCS(=O)(=O)[O-])C(=O)C(O)=C3C(C)C)/C(=C/NCCS(=O)(=O)[O-])C(=O)C(O)=C2C(C)C.[Na+].[Na+]` [MEGOSIN], `Cc1cc2c(c(O)c1-c1c(C)cc3c(c1O)/C(=C/NCCCCCCCC(=O)[O-])C(=O)C(O)=C3C(C)C)/C(=C/NCCCCCCCC(=O)[O-])C(=O)C(O)=C2C(C)C.[Na+].[Na+]` is lower in “Ratio CC50/IC50” value: 43.03 for the first, 10.44 for the second.

First: Cc1cc2c(c(O)c1-c1c(C)cc3c(c1O)/C(=C/NC(C(=O)[O-])c1ccc(O)cc1)C(=O)C(O)=C3C(C)C)/C(=C/NC(C(=O)[O-])c1ccc(O)cc1)C(=O)C(O)=C2C(C)C.[Na+].[Na+] (stereo not given)
Second: Cc1cc2c(C(C)C)c(O)c(O)c(/C=N/[C@@H](Cc3ccccc3)C(=O)[O-])c2c(O)c1-c1c(C)cc2c(C(C)C)c(O)c(O)c(/C=N/[C@@H](Cc3ccccc3)C(=O)[O-])c2c1O.[Na+].[Na+]
The “Ratio CC50/IC50” value of the first is lower: 16.54 for the first, 32.27 for the second.

System: not listed separately
Assay: Cytotoxicity in human TZM-bl cells by MTT assay
Assay type: cell-based
Details: not given

Compared with `Cc1cc2c(c(O)c1-c1c(C)cc3c(c1O)/C(=C/NCCS(=O)(=O)[O-])C(=O)C(O)=C3C(C)C)/C(=C/NCCS(=O)(=O)[O-])C(=O)C(O)=C2C(C)C.[Na+].[Na+]` [MEGOSIN], `Cc1cc2c(c(O)c1-c1c(C)cc3c(c1O)/C(=C/NCCCCCCCC(=O)[O-])C(=O)C(O)=C3C(C)C)/C(=C/NCCCCCCCC(=O)[O-])C(=O)C(O)=C2C(C)C.[Na+].[Na+]` is 1.8-fold lower in CC50: 53.4 µM for the first, 29.6 µM for the second.

`COC(=O)C(N/C=C1\C(=O)C(O)=C(C(C)C)c2cc(C)c(-c3c(C)cc4c(c3O)/C(=C/NC(C(=O)OC)c3ccccc3)C(=O)C(O)=C4C(C)C)c(O)c21)c1ccccc1` (stereo not given) and `Cc1cc2c(c(O)c1-c1c(C)cc3c(c1O)/C(=C/NC(C(=O)[O-])c1ccc(O)cc1)C(=O)C(O)=C3C(C)C)/C(=C/NC(C(=O)[O-])c1ccc(O)cc1)C(=O)C(O)=C2C(C)C.[Na+].[Na+]` (stereo not given) are within 1.5-fold of each other in CC50: 31.5 µM for the first, 22.2 µM for the second.

Going from `Cc1cc2c(C(C)C)c(O)c(O)c(/C=N/[C@@H](Cc3ccccc3)C(=O)[O-])c2c(O)c1-c1c(C)cc2c(C(C)C)c(O)c(O)c(/C=N/[C@@H](Cc3ccccc3)C(=O)[O-])c2c1O.[Na+].[Na+]` to `COC(=O)[C@H](CC(C)C)N/C=C1\C(=O)C(O)=C(C(C)C)c2cc(C)c(-c3c(C)cc4c(c3O)/C(=C/N[C@@H](CC(C)C)C(=O)OC)C(=O)C(O)=C4C(C)C)c(O)c21`, the CC50 falls from 57.1 µM to 33.6 µM (1.7-fold).
